Source: patent US11078277B2, “Methods and pharmaceutical compositions for enhancing CD8+ T cell-dependent immune responses in subjects suffering from cancer” (INSERM (INSTITUT NATIONAL DE LA SANTE ET DE LA RECHERCHE …, priority 2016, dated 2021)

Tested on: Smpd3 expression
Experiment: Smpd3 expression by RT-qPCR in B16K1 melanoma cells incubated with 5-aza or TSA
Format: cell-based, murine
Protocol: A, B16K1 cells expressing (2+) or not (2−) V5-tagged nSMase 2 were analyzed by Western blot using anti-V5 and anti-β-actin antibodies. B, Neutral SMase activity in B16K1 nSMase 2+ (2+) and nSMase 2− (2−) as well as in mock-transfected B16K1 cells. C, Intracellular ceramide levels in B16K1 nSMase 2+(2+) and nSMase 2− (2−) as well as in mock-tranfected B16K1 cells. Data are expressed as the % of values obtained with mock-transfected B16K1 cells. Values are shown as means±sem of 3 independent experiments (B and C). D, In vitro B16K1 cell growth was evaluated in 10% FCS medium (left panel) or 0% FCS medium ([…]). […] Cells were analysed by Western blot using anti-V5 and anti-β-actin antibodies. […] Data are shown as means±sem of 3 independent experiments. (*: p<0.05; **: p<0.01). G, B16K1 melanoma cells were incubated or not with 1 μM of 5 aza-2 deoxycitidine (5-aza) during 72 hours or with 0.1 μM Trichostatine A (TSA) during the last 16 hours. Smpd3 expression was analysed by RT-qPCR. Data are shown as means±sem of 3 independent experiments.
RNA isolation and qRT-PCR. RNA isolation from cells and exosomes was performed by using the Qiagen RNeasy mini kit and Qiagen miRNeasy kit respectively, according to manufacturer's instructions. […]

Nc1ncn([C@@H]2O[C@H](CO)[C@@H](O)[C@H]2O)c(=O)n1 [5-Azacytidine]
Smpd3 expression (1 μM 5-aza during 72 hours): not

CC(/C=C/C(=O)NO)=C\[C@@H](C)C(=O)c1ccc(N(C)C)cc1 [trichostatin A]
Smpd3 expression (0.1 μM TSA during the last 16 hours): greatly enhanced
